{"source": "patent US20080213404A1", "about": "“Hif Modulating Compounds and Methods of Use Thereof” (priority 2005, published 2008)", "key": {"[1]": {"test_system": "HIF-1α-dependant transcription (HRE-luciferase reporter)", "experiment": "HRE-luciferase reporter assay in BM-derived macrophages of HRE-luciferase transgenic mice", "assay_type": "cell-based, mouse", "settings": "18 hours; L-Mim 800 μM, desferrioxamine mesylate 150 μM, CoCl2 150 μM", "quoted_text": "(C) HRE-luciferase BM-derived macrophages were incubated either with GAS or heat-inactivated GAS at an MOI equal to 5-10 under hypoxia (1%) or with the addition of mimosine (800 μM), desferrioxamine mesylate (150 μM), or CoCl2 (150 μM) for 18 hours.\nWe measured HIF-1α-dependant transcription in macrophages derived from HRE-luciferase transgenic mice, which contain a luciferase reporter gene driven by 6 consecutive specific HRE sequences.\nMacrophages were derived from the marrow of femurs and tibiae of transgenic HRE-luciferase mice as described above. The luciferase reporter gene in these mice is driven by 6 specific HRE sequences. Cells were incubated with GAS or heat-inactivated GAS for 18 hours. […] Cells were then washed out with PBS, and luciferase assay was performed by using the Bright-Glo Luciferase Assay kit (Promega Corp.). Luciferase activities were measured using a luminometer."}, "[2]": {"test_system": "intracellular killing of GAS by macrophages", "experiment": "Bacterial killing assay (antibiotic protection): intracellular killing of GAS by macrophages", "assay_type": "cell-based, mouse", "settings": "for intracellular killing of GAS by WT macrophages: preincubation 5 hours, L-Mim 800 μM, OH-pyridone 150 μM, desferrioxamine mesylate 100 μM, CoCl2 100 μM", "description": "FIG. 2 is a series of graphs showing HIF-1 regulates bactericidal activity of myeloid cells. (A) Intracellular killing of GAS by WT, HIF-1-null, or vHL-null macrophages. BM-derived macrophages were inoculated with GAS at an MOI equal to 2.5 and cultured under normoxic (white bars) or hypoxic (0.1%; black bars) conditions for 1 hour after antibiotic treatment. Statistical analyses were performed using unpaired Student's t test. *P<0.05; **P<0.01. (B) Loss of HIF-1 in macrophages decreases intracellular killing of GAS and of P. aeruginosa. WT (black bars) or HIF-1-null (white bars) BM-derived macrophages were incubated with bacteria for 1 hour before antibiotics were added. Intracellular killing was analyzed by determination of viable CFUs in macrophage lysates at the specified time points after bacterial uptake. Experiments were performed in triplicate. […] Experiment shown is representative of 3 repeated studies. (C) Loss of vHL in BM-derived macrophages increases intracellular killing of GAS and of P. aeruginosa. Experiments were performed in triplicate and are representative of 3 repeated studies. […] (D) Pharmacologic agonists of HIF-1 increase myeloid cell bactericidal activity. Preincubation (5 hours) with desferrioxamine mesylate (DFO), CoCl2, OH-pyridone, or Mim increased the intracellular killing capacity of WT macrophages against GAS. ***P<0.001.\nTo assess the functional consequences of HIF-1α activation, we used an antibiotic protection assay to calculate intracellular killing of GAS by WT macrophages compared with killing by those derived from the bone marrow of HIF-1α-lysMcre mice (11). Here, targeted deletion of the HIF-1α gene has been created via crosses into a background of cre expression driven by the lysozyme M promoter (lysMcre), allowing specific deletion of the transcription factor in the myeloid lineage (11). […] Macrophage killing of the Gram-negative bacterium P. aeruginosa was likewise impaired upon deletion of HIF-1α (FIG. 2B).\nFinally, we treated WT macrophages with a number of known pharmacologic inducers of HIF-1α that each act directly or indirectly to inhibit prolyl hydroxylase targeting of HIF-1α for ubiquitination. These included the iron chelator desferrioxamine, CoCl2, L-Mim, and 3-hydroxy-1,2-dimethyl-4(1H)-pyridone (OH-pyridone) (13). The addition of each of these agents increased intracellular killing of GAS by WT macrophages (FIG. 2D).\nBacterial killing assays. GAS were grown to logarithmic phase in THB to OD600=1×10^8 cfu/ml. Bacteria were added to macrophages at an MOI of 2.5 bacteria/cell and intracellular killing assessed using an antibiotic protection assay (11, 53) or, alternatively, total cell-associated bacteria measured by vigorous washing with PBS×3 to remove nonadherent bacteria. At the end of the assay, total cell lysate was plated on THB agar for enumeration of CFU. […] To assess macrophage viability, the monolayers were washed with PBS and incubated with 0.04% Trypan blue for 10 minutes at 37° C. As specified in the FIG. 2 legend and in Results, macrophages were preincubated with L-Mim (800 μM), OH-pyridone (150 μM), desferrioxamine mesylate (100 μM), or CoCl2 (100 μM) for 5 hours prior to the killing assay; each drug level was known to be sufficient for HIF-1 induction (13). Absence of bacterial inhibition was tested by incubating the drugs at the above concentrations with GAS (˜105) at 37° C. for 1-24 hours. Mouse model of GAS infection."}, "[3]": {"test_system": "vincomycin-resistant Enterococcus species", "settings": "freshly isolated human neutrophils"}, "iNOS": {"test_system": "iNOS", "experiment": "iNOS mRNA by RT-PCR in BM-derived macrophages infected with GAS", "assay_type": "cell-based, mouse", "settings": "for expression of iNOS mRNA: WT macrophages infected with GAS, RNA isolated 3 hours after antibiotic treatment", "quoted_text": "(A) Total RNA from WT, HIF-1−/−, and vHL−/− bone marrow-derived macrophages infected with GAS isolated 3 hours after antibiotic treatment. iNOS mRNA was quantified by RT-PCR. WT, nonstimulated macrophages were arbitrarily set to 1 unit following normalization to ribosomal RNA levels. […] Total RNA from WT and HIF-1-null BM-derived macrophages infected with GAS±Mim isolated 3 hours after antibiotic treatment. iNOS mRNA was quantified by RT-PCR. WT, noninfected macrophages were arbitrarily set to 1 unit following normalization to ribosomal RNA levels. Statistical analyses performed by unpaired Student's t test. **P<0.01; ***P<0.001.\nFirst-strand synthesis was obtained from 1 μg of total RNA isolated with Trizol reagent (Molecular Research Center Inc.) by the SuperScript system (Invitrogen Corp.), employing random primers."}, "[4]": {"test_system": "vincomycin-resistant Enterococcus species", "settings": "cultured human monocytic cells"}, "Staphylococcus aureus [5]": {"test_system": "Staphylococcus aureus", "experiment": "Bactericidal capacity of freshly isolated human blood", "assay_type": "cell-based"}, "Staphylococcus aureus [6]": {"test_system": "Staphylococcus aureus", "experiment": "Bactericidal capacity of freshly isolated human neutrophils against S. aureus", "assay_type": "cell-based"}, "Staphylococcus aureus [7]": {"test_system": "Staphylococcus aureus", "experiment": "Bactericidal capacity of cultured human monocytic cells against S. aureus", "assay_type": "cell-based"}, "HIF-1α": {"test_system": "HIF-1α", "experiment": "Western blot of HIF-1α in macrophages exposed to GAS", "assay_type": "cell-based, mouse", "settings": "WT macrophages, normalized to β-actin", "description": "(§1) FIG. 6 provides graphs showing HIF-1 and vHL regulate NO production. (A) Total RNA from WT, HIF-1−/−, and vHL−/− bone marrow-derived macrophages infected with GAS isolated 3 hours after antibiotic treatment. iNOS mRNA was quantified by RT-PCR. WT, nonstimulated macrophages were arbitrarily set to 1 unit following normalization to ribosomal RNA levels. (B) NO production under GAS stimulation ±1.5 mM AG ([…]; Calbiochem). BM-derived macrophages were cultured for 20 hours, conditioned supernatant collected, and NO […] levels measured by the Griess assay. (C) Mim enhances iNOS expression of WT macrophages stimulated by GAS. Total RNA from WT and HIF-1-null BM-derived macrophages infected with GAS±Mim isolated 3 hours after antibiotic treatment. iNOS mRNA was quantified by RT-PCR. WT, noninfected macrophages were arbitrarily set to 1 unit following normalization to ribosomal RNA levels. Statistical analyses performed by unpaired Student's t test. **P<0.01; ***P<0.001. […]\nPeritoneal neutrophils or bone marrow-derived macrophages inoculated with GAS were harvested and washed with PBS, and proteins were extracted with HTAB or RIPA buffers. Protein concentration was calculated using the Bio-Rad assay (Bio-Rad Laboratories). […] Immunoreactive proteins were detected using the ECL chemiluminescent system (Amersham Biosciences)."}, "TNF-α": {"test_system": "TNF-α", "experiment": "TNF-α ELISA of conditioned macrophage supernatants after GAS", "assay_type": "cell-based, mouse", "settings": "WT, HIF-1α and vHL-deficient macrophages, 1 hour after antibiotic treatment", "description": "FIG. 7 is a series of graphs illustrating HIF-1 and vHL regulate TNF-production. (A) Total RNA from WT, HIF-1−/−, and vHL−/− bone marrow-derived macrophages infected with GAS were isolated 3 hours after antibiotic treatment. TNF-mRNA was quantified by RT-PCR. WT, nonstimulated macrophages were arbitrarily set to 1 unit following normalization to ribosomal RNA levels. (B) inhibition of iNOS decreases TNF-production. BM-derived macrophages were cultured for 1 hour after antibiotic treatment. Conditioned supernatant was harvested and TNF-protein analyzed by ELISA (eBiosciences). Statistical analyses were performed using unpaired Student's t test. ***P<0.001.\nWe next examined the expression pattern of TNF-α, a cytokine involved in the augmentation of inflammatory responses to microbial infection. Indeed, development of GAS-necrotizing fasciitis has been reported as a complication of anti-TNF-α therapy (37). […] Whereas basal levels of TNF-α protein expression were similar in WT, HIF-1α, and vHL-null macrophages, loss of HIF-1α also strongly depressed the rapid secretion of TNF-α protein in response to GAS (FIG. 7B)."}, "NO production": {"test_system": "NO production", "experiment": "Nitrite determination (Griess assay) in macrophage supernatants under GAS stimulation", "assay_type": "cell-based, mouse", "settings": "1.5 mM AG; macrophages cultured 20 hours", "description": "as §1\nThe concentration of nitrite (NO2-), the stable oxidized derivative of NO, was determined in 100-μl aliquots of cell culture supernatants transferred to 96-well plates. Essentially, 100 μl of Griess reagent (1% sulfanilamide, 0.1% naphthylene diamine dihydrochloride, 2% H3PO4) was added per well, and the absorbances were measured at 540 nm in a microplate reader. […]"}}, "note": "Counter-ions that a name gives are not always drawn. Like-named read-outs stand apart in the source and are kept apart here."}
{"compound": "CC(=O)N(O)CCCCCNC(=O)CCC(=O)N(O)CCCCCNC(=O)CCC(=O)N(O)CCCCCN", "note": "[desferrioxamine mesylate]", "values": [{"measurement": "increase in luciferase reporter activity", "setting": "[1]", "result": 3, "unit": "fold"}, {"measurement": "intracellular killing of GAS by WT macrophages", "setting": "[2]", "result": "increased"}]}
{"compound": "Cc1c(O)c(=O)ccn1C", "note": "[OH-pyridone, 3-hydroxy-1,2-dimethyl-4(1H)-pyridone]", "values": [{"measurement": "intracellular killing of GAS by WT macrophages", "setting": "[2]", "result": "increased"}]}
{"compound": "N[C@@H](Cn1ccc(=O)c(O)c1)C(=O)O", "note": "[L-Mim, 3-Hydroxy-4-oxo-1(4H)-pyridinealanine]", "values": [{"measurement": "bactericidal capacity against vincomycin-resistant Enterococcus species", "setting": "[3]", "result": "increase"}, {"measurement": "intracellular killing of GAS by WT macrophages", "setting": "[2]", "result": "increased"}, {"measurement": "increased expression of iNOS mRNA", "setting": "iNOS; HIF-1α-null macrophages infected with GAS", "result": "very low"}, {"measurement": "expression of iNOS mRNA", "setting": "iNOS", "result": "greatly increased"}, {"measurement": "expression of iNOS mRNA", "setting": "iNOS; listed as Mim", "result": "enhances"}, {"measurement": "bactericidal capacity against vincomycin-resistant Enterococcus species", "setting": "[4]", "result": "increase"}, {"measurement": "bactericidal capacity against Staphylococcus aureus", "setting": "Staphylococcus aureus [5]", "result": "increase"}, {"measurement": "bactericidal capacity against Staphylococcus aureus", "setting": "Staphylococcus aureus [6]", "result": "increase"}, {"measurement": "bactericidal capacity against Staphylococcus aureus", "setting": "Staphylococcus aureus [7]", "result": "increase"}]}
{"compound": "[Cl][Co][Cl]", "note": "[CoCl2, cobalt chloride]", "values": [{"measurement": "increase in luciferase reporter activity", "setting": "[1]", "result": 3, "unit": "fold"}, {"measurement": "intracellular killing of GAS by WT macrophages", "setting": "[2]", "result": "increased"}]}
{"compound": "Cc1ccc(S(=O)(=O)O)cc1.NNC(N)=NO", "note": "[AG, 1-amino-2-hydroxyguanidine, p-toluenesulfate]", "values": [{"measurement": "bactericidal activity of HIF-1α-null macrophages", "setting": "[2]; HIF-1α-null macrophages, presence of iNOS inhibitor", "result": "did not further suppress"}, {"measurement": "bactericidal activity of WT macrophages", "setting": "[2]; WT macrophages, presence of iNOS inhibitor", "result": "inhibited"}, {"measurement": "GAS-induced increase of HIF-1α levels", "setting": "HIF-1α", "result": "blocked"}, {"measurement": "TNF-α protein in conditioned supernatants", "setting": "TNF-α", "result": "reduced amounts"}, {"measurement": "production of NO in response to GAS", "setting": "NO production", "result": "significantly inhibited"}]}
